{
  "source": "paper PMC4714926",
  "about": "(ACS chemical biology, 2015)",
  "key": {"GFP-HIV protease fusion": {"tested_on": "GFP-HIV protease fusion", "experiment": "GFP-HIV protease reporter assay in HEK293 T-REx cells", "format": "cell-based, human"}, "FKBP": {"target": "FKBP", "settings": "read-out: KD for FKBP; cited from earlier work"}, "recombinant human FKBP12": {"target": "recombinant human FKBP12 (Homo sapiens, UniProt P62942)", "sequence (P62942 whole entry)": "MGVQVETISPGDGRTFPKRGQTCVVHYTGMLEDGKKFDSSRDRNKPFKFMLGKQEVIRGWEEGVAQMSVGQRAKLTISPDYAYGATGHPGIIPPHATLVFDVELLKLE", "experiment": "PAMPA partitioning with recombinant human FKBP12 on one side of the membrane", "settings": "compared to control wells"}},
  "data": [
    {"compound": "COc1ccc(S(=O)(=O)N(CC(C)C)C[C@@H](O)[C@H](Cc2ccccc2)NC(=O)O[C@H]2CCOC2)cc1", "note": "[4-OMe-amprenavir]", "values": [
      {"measurement": "rescue of cell viability and GFP fluorescence", "setting": "GFP-HIV protease fusion; 5 μM, after doxycycline induction, fluorescence and light microscopy", "value": "could rescue cell viability and increase fluorescence"},
      {"measurement": "dependence of GFP fluorescence on mCherry-FKBP12 over-expression", "setting": "GFP-HIV protease fusion; transient mCherry-FKBP12 over-expression, microscopy", "value": "did not show this dependence on mCherry-FKBP12 expression"}
    ]},
    {"compound": "C=CC[C@@H]1/C=C(\\C)C[C@H](C)C[C@H](OC)[C@H]2O[C@@](O)(C(=O)C(=O)N3CCCC[C@H]3C(=O)O[C@H](/C(C)=C/[C@@H]3CC[C@@H](O)[C@H](OC)C3)[C@H](C)[C@@H](O)CC1=O)[C@H](C)C[C@@H]2OC", "note": "[FK506]", "values": [
      {"measurement": "Kd", "setting": "FKBP", "value": "~0.6", "unit": "nM"}
    ]},
    {"compound": "CC(C)CN(C[C@@H](O)[C@H](Cc1ccccc1)NC(=O)O[C@H]1CCOC1)S(=O)(=O)c1ccc(N)cc1", "note": "[amprenavir]", "values": [
      {"measurement": "enhancement of partitioning by FKBP12", "setting": "recombinant human FKBP12", "value": "unaffected by FKBP12"}
    ]}
  ]
}
